# From ChEMBL document CHEMBL3885861, “Open TG-GATES”
# Species on record: Rattus norvegicus
# Assay: Open TG-GATES - Regimen: Daily Repeat
# Assay type: toxicity, organism-based, Sprague-Dawley
# Design: regimen Daily Repeat, gender Male, age 6 weeks
# Details: in vivo, po, route gavage; for KIDNEY_L / KIDNEY_R / KIDNEY_TOTAL: tissue Kidney; for ALP / ALT / AST / BUN / CRE / Ca / Cl / DBIL / GLC / IP / K / LDH / Na / PL / RALB / TBIL / TC / TP / gamma-GTP / TG: tissue Plasma
# [1] = 45 mg/kg, 72 h, dose level Low, time 3 day
# [2] = 45 mg/kg, 72 h, tissue Blood, dose level Low, time 3 day
# [3] = 45 mg/kg, […], dose level Low, time 7 day
# [4] = 45 mg/kg, […], dose level Low, time 14 day
# [5] = 45 mg/kg, […], dose level Low, time 28 day
# [6] = 45 mg/kg, […], tissue Blood, dose level Low, time 7 day
# [7] = 45 mg/kg, […], tissue Blood, dose level Low, time 14 day
# [8] = 45 mg/kg, […], tissue Blood, dose level Low, time 28 day
smiles,measurement,setting,value
CC(=O)Oc1ccccc1C(=O)O [ASPIRIN],TERMINAL_BW,[1],237.2 g
same,APTT,[2],19.4 s
same,Bas,[2],0%
same,Eos,[2],0.8%
same,Fbg,[2],214 mg/dL
same,Hb,[2],13.7 g/dL
same,Ht,[2],40.3%
same,Lym,[2],81%
same,MCH,[2],21.4 pg
same,MCHC,[2],33.9%
same,MCV,[2],62.9 fL
same,Mono,[2],2.8%
same,Neu,[2],13.6%
same,Plat,[2],113.2 x10_4/uL
same,RBC,[2],641.2 x10_4/ul
same,Ret,[2],5.8%
same,WBC,[2],103.1 x10_2/uL
same,KIDNEY_L,[1],1.1 g
same,KIDNEY_R,[1],1.1 g
same,KIDNEY_TOTAL,[1],2.2 g
same,ALP,[1],890.4 IU/L
same,ALT,[1],45 IU/L
same,AST,[1],86.4 IU/L
same,BUN,[1],13.8 mg/dL
same,CRE,[1],0.4 mg/dL
same,Ca,[1],10.7 mg/dL
same,Cl,[1],102.2 meq/L
same,DBIL,[1],0.09 mg/dL
same,GLC,[1],205.2 mg/dL
same,IP,[1],6.8 mg/dL
same,K,[1],3.8 meq/L
same,LDH,[1],315.2 IU/L
same,Na,[1],140.4 meq/L
same,PL,[1],146.2 mg/dL
same,RALB,[1],3.5 g/dL
same,TBIL,[1],0.1 mg/dL
same,TC,[1],71 mg/dL
same,TP,[1],5.7 g/dL
same,gamma-GTP,[1],0.6 IU/L
same,TERMINAL_BW,[3],270.5 g
same,TERMINAL_BW,[4],315.9 g
same,TERMINAL_BW,[5],394.7 g
same,APTT,[6],22.5 s
same,Bas,[6],0%
same,Eos,[6],1%
same,Fbg,[6],205.8 mg/dL
same,Hb,[6],13.5 g/dL
same,Ht,[6],39.9%
same,Lym,[6],84.2%
same,MCH,[6],20.8 pg
same,MCHC,[6],33.9%
same,MCV,[6],61.4 fL
same,Mono,[6],2.2%
same,Neu,[6],12.2%
same,PT,[6],12.6 s
same,Plat,[6],120.9 x10_4/uL
same,RBC,[6],650.4 x10_4/ul
same,Ret,[6],5.3%
same,WBC,[6],120.2 x10_2/uL
same,APTT,[7],19.9 s
same,Bas,[7],0%
same,Eos,[7],1.2%
same,Fbg,[7],220.6 mg/dL
same,Hb,[7],14.7 g/dL
same,Ht,[7],42.3%
same,Lym,[7],77.2%
same,MCH,[7],20.9 pg
same,MCHC,[7],34.9%
same,MCV,[7],59.8 fL
same,Mono,[7],2%
same,Neu,[7],18.2%
same,Plat,[7],128.5 x10_4/uL
same,RBC,[7],707.4 x10_4/ul
same,Ret,[7],3.6%
same,WBC,[7],138.1 x10_2/uL
same,APTT,[8],20.3 s
same,Bas,[8],0%
same,Eos,[8],1.4%
same,Fbg,[8],207.2 mg/dL
same,Hb,[8],15.4 g/dL
same,Ht,[8],44.6%
same,Lym,[8],80.4%
same,MCH,[8],19.2 pg
same,MCHC,[8],34.4%
same,MCV,[8],55.7 fL
same,Mono,[8],2.4%
same,Neu,[8],14.2%
same,Plat,[8],101 x10_4/uL
same,RBC,[8],801 x10_4/ul
same,Ret,[8],2%
same,WBC,[8],104.5 x10_2/uL
same,KIDNEY_L,[3],1.2 g
same,KIDNEY_R,[3],1.2 g
same,KIDNEY_TOTAL,[3],2.3 g
same,KIDNEY_L,[4],1.3 g
same,KIDNEY_R,[4],1.3 g
same,KIDNEY_TOTAL,[4],2.5 g
same,KIDNEY_L,[5],1.5 g
same,KIDNEY_R,[5],1.5 g
same,KIDNEY_TOTAL,[5],3 g
same,ALP,[3],901.6 IU/L
same,ALT,[3],27.8 IU/L
same,AST,[3],62.2 IU/L
same,BUN,[3],16 mg/dL
same,CRE,[3],0.4 mg/dL
same,Ca,[3],10.6 mg/dL
same,Cl,[3],102.6 meq/L
same,DBIL,[3],0.096 mg/dL
same,GLC,[3],219 mg/dL
same,IP,[3],7.3 mg/dL
same,K,[3],4.1 meq/L
same,LDH,[3],213.4 IU/L
same,Na,[3],140.4 meq/L
same,PL,[3],140.6 mg/dL
same,RALB,[3],3.2 g/dL
same,TBIL,[3],0.1 mg/dL
same,TC,[3],73.4 mg/dL
same,TG,[3],107.4 mg/dL
same,TP,[3],5.5 g/dL
same,gamma-GTP,[3],0.6 IU/L
same,ALP,[4],902.4 IU/L
same,ALT,[4],40.6 IU/L
same,AST,[4],76 IU/L
same,BUN,[4],16 mg/dL
same,CRE,[4],0.4 mg/dL
same,Ca,[4],10.6 mg/dL
same,Cl,[4],102.8 meq/L
same,DBIL,[4],0.1 mg/dL
same,GLC,[4],189.8 mg/dL
same,IP,[4],7.1 mg/dL
same,K,[4],4.2 meq/L
same,LDH,[4],244 IU/L
same,Na,[4],140.8 meq/L
same,PL,[4],153 mg/dL
same,RALB,[4],3.5 g/dL
same,TBIL,[4],0.1 mg/dL
same,TC,[4],71.8 mg/dL
same,TG,[4],133.6 mg/dL
same,TP,[4],5.8 g/dL
same,gamma-GTP,[4],0.6 IU/L
same,ALP,[5],733.8 IU/L
same,ALT,[5],33 IU/L
same,AST,[5],67.2 IU/L
same,BUN,[5],17 mg/dL
same,CRE,[5],0.5 mg/dL
same,Ca,[5],10.3 mg/dL
same,Cl,[5],102.6 meq/L
same,DBIL,[5],0.094 mg/dL
same,GLC,[5],232.8 mg/dL
same,IP,[5],6.7 mg/dL
same,K,[5],3.9 meq/L
same,LDH,[5],186.2 IU/L
same,Na,[5],141.2 meq/L
same,PL,[5],143.2 mg/dL
same,RALB,[5],3.4 g/dL
same,TBIL,[5],0.2 mg/dL
same,TC,[5],68.6 mg/dL
same,TG,[5],125 mg/dL
same,TP,[5],6.1 g/dL
same,gamma-GTP,[5],0.6 IU/L
same,TERMINAL_BW,"150 mg/kg, 72 h, dose level Middle, time 3 day",239.9 g
